Test results published in patent US6410555B1, “Tetrahydronaphthyridinyl-carboxamides having anti-convulsant activity” (SmithKline Beecham p.l.c., priority 1998, dated 2002).

Test system: maximal (tonic hindlimb extension) electroshock seizures in male rats
Experiment: Maximal electroshock seizure (MEST) threshold test, rat model
Type: in vivo
Conditions: 2 mg/kg p.o. at 2 h
Procedure: The maximal electroshock seizure (MEST) threshold test in rodents is particularly sensitive for detecting potential anti convulsant properties ^1. In this model anticonvulsant agents elevate the threshold to electrically-induced seizures whilst proconvulsants lower the seizure threshold. […] The threshold for maximal (tonic hindlimb extension) electroshock seizures in male rats (Sprague Dawley, 80-150 g 6 weeks old) was determined by a Hugo Sachs Electronik stimulator which delivered a constant current (0.3 sec duration; from 1-30 mA in steps of […]). The procedure is similar to that outlined above for mouse and full details are as published by Upton et al,.^4 The percentage increase or decrease in CC50 for each group compared to the control is calculated. […]

Compound | percentage increase in CC50 compared to the control [%]
COc1ccc(C(=O)Nc2cnc3c(c2)CN(C)CC3(C)C)cc1C(F)(F)F.Cl [Example 3, N-(5,6,7,8-Tetrahydro-6,8,8-trimethyl[1,6]naphthyridin-3-yl)-4-methoxy-3-trifluoromethylbenzamide Hydrochloride] | 314
CCOc1ccc(C(=O)Nc2cnc3c(c2)CN(C)CC3(C)C)cc1Br.Cl [Example 5, N-(5,6,7,8-Tetrahydro-6,8,8-trimethyl[1,6]naphthyridin-3-yl)-3-bromo-4-ethoxybenzamide Hydrochloride] | 350
